“Also recorded” adds a separate entry of the source.
Key:
P388 leukemia = test: In vivo antitumor assay, P388 leukemia (IP); set-up: species or system mice; settings: for % ILS / Long Term Survivors: P388(IP) 10^6 cells, drug IP
Excerpt: (§1) In vivo Antitumor Assay Procedure
(§2) Mice: Inbred: C3H/He; and Hybrids: B6D2F1 (C57BL/6 females×DBA/2 males), CD2F1 (Balb/c females×DBA/2 males) and B6C3F1 (C57BL/6×C3H) were bred at Wayne State University from strains obtained from the Frederick Cancer Research Facility, Frederick, Md. or from commercial suppliers.
(§3) Tumors: Murine Tumors: P388 leukemia and the following transplantable solid tumors of mice were used for in vivo testing: B16 melanoma, pancreatic ductal adenocarcinoma No. 03, colon adenocarcinoma No. 38 and mammary ductal adenocarcinoma No. 16/C. All tumors are in the Developmental Therapeutics Program frozen tumor repository, maintained by the Biological Testing Branch, Frederick, Md. Each has a detailed description, code identification number, and list of references at the National Tumor Repository. Tumors were maintained in the mouse strain of origin and were transplanted in the appropriate F1 hybrid (or the strain of origin) for therapy trials. The mice were supplied food and water ad libitum.
(§4) For P388 leukemia and B16 melanoma studies the tumor cells were implanted IP on day zero and treatment was started on day one (also IP). Titered controls were also included to facilitate the calculation of tumor cell kill.
(§5) End Points for Assessing Antitumor Activity: Quantitative end points used to assess antitumor activity included % Increased Life Span (% ILS), Tumor Cell Kill (Log10 kill), and Tumor Growth Inhibition (T/C). Long Term Survivors (45 or 60 day) were excluded from calculations of % ILS and Tumor Cell Kill.
(§6) Endpoints were calculated as follows: [formula] where Dt is the median day of death for treated and Dc is the median day of death for control groups.
(§7) The log10 cell kill was calculated from the following formula: [formula] where T-C is the tumor difference in the median day of death between the treated (T) and the control (C) groups and Td is the tumor doubling time (in days), the latter estimated from the best fit straight line from a log-linear growth plot of the control-group tumors in exponential growth. The conversion of the T-C values to log10 cell kill is possible because the Td for tumors regrowing post-treatment approximated the Td values of the tumors in untreated control mice.

[1] = In vivo antitumor assay, P388 leukemia (IP); set-up: species or system mice; settings: mouse, in vivo, P388(IP) 10^6 cells, drug IP, read-out: Maximum Tolerated Total Dose
Excerpt: as §1, §2, §3, §4, §5, §6, §7

[2] = tested on: pancreatic ductal adenocarcinoma No. 03; test: In vivo antitumor assay, pancreatic ductal adenocarcinoma No. 03 (Panc03, SC); set-up: species or system mice
Excerpt: as §1, §2, §3
(§8) Chemotherapy: For pancreatic ductal adenocarcinoma No. 03, colon adenocarcinoma No. 38, and mammary ductal adenocarcinoma No. 16, the following methods were used to help ensure a more uniform tumor burden per mouse (thus reducing the requirement for greater numbers of mice per group), bilateral tumor implants were used. The animals necessary to begin an experiment were pooled, implanted bilaterally s.c. on day zero with 30-60-mg tumor fragments using a 12-gauge trocar, and again pooled before randomization to the various treatment and control groups. Chemotherapy was started within three days after tumor implantation while the number of cells per mouse was relatively small (1×10^7 -1×10^8 cells).
as §5, §6
(§9) T/C Value: Tumors were measured with a caliper once or twice weekly (as needed) until either tumors exceeded 1600 mg or cure was assured. Tumor weights were estimated from two-dimensional measurements: Tumor Weight (mg)=(a×b^2)/2, where a and b are the tumor length and width (mm), respectively. Measurements were carried out simultaneously in both the treatment and control groups. When the control group tumors reached approximately 750-1500 mg in size (median of group), the median tumor weight of each group was determined (including zeros). The T/C value in percent is an indication of antitumor effectiveness. […]. […]

[3] = tested on: colon adenocarcinoma No. 38; test: In vivo antitumor assay, colon adenocarcinoma No. 38 (SC); set-up: species or system mice
Excerpt: as §1, §2, §3, §8, §5, §6, §9

[4] = as above; set-up: species or system mice; settings: mouse, in vivo; Colon 38 (SC); drug SC; QD3-9; read-out: Maximum Tolerated Total Dose
Excerpt: as §1, §2, §3, §8, §5, §6, §9

[5] = Toxicity observations in mice of the in vivo antitumor trials
Excerpt: Dose limiting toxicity appeared to be leukopenia, based on small spleen sizes in necropsy of mice dying at lethal dosage levels. […] Host recovery was rapid, with mice regaining their lost body weight within two to five days post nadir (at the highest non-toxic dosage levels).

B16 melanoma = test: In vivo antitumor assay, B16 melanoma (IP); set-up: species or system mice
Excerpt: as §1, §2, §3, §4, §5, §6, §7

[6] = In vivo antitumor assay, B16 melanoma (IP); set-up: species or system mice; settings: mouse, in vivo; B16(IP) 0.5 ml 10% brie; drug IP; QD1,5,9; read-out: Maximum Tolerated Total Dose
Excerpt: as §1, §2, §3, §4, §5, §6, §7

several tumor systems = test: Antitumor activity in mice against several tumor systems (overall statement); format: in vivo
Excerpt: as §1, §2
as §3, with “libitum. […]” for “libitum.”
End Points for Assessing Antitumor Activity: Quantitative end points used to assess antitumor activity included % Increased Life Span (% ILS), Tumor Cell Kill (Log10 kill), and Tumor Growth Inhibition (T/C). […]

Cc1cc(-c2c(F)cc3c(=O)c(C(=O)O)cn4c3c2SC[C@@H]4C)cc(C)n1 [Example 5, (S)-10-(2,6-Dimethyl-4-pyridinyl)-9-fluoro-3-methyl-7-oxo-2,3-dihydro-7H-pyrido[1,2,3-de][1,4]benzothiazine-6-carboxylic acid]
% ILS (P388 leukemia; QD1,5,9, 1014 mg/kg total): 90%
Long Term Survivors (P388 leukemia; QD1,5,9, 1014 mg/kg total): 0/6
% ILS (P388 leukemia; QD1-7, 504 mg/kg total): 92%
Long Term Survivors (P388 leukemia; QD1-7, 504 mg/kg total): 0/5
antitumor activity (in words) (P388 leukemia; P388, 90% ILS): excellent activity
log10 tumor cell kill (P388 leukemia; P388, equal to 90% ILS): 5.2-7.0 log10
MTD ([1]; QD1,5,9, vehicle 5% EtOH, 1% NaHCO3, 0.3% tween40 (pH 8.3)): 1010 mg/kg
MTD ([1]; QD1-7, vehicle 3% EtOH, 3% NaHCO3, 1% tween40): 504 mg/kg
Long Term Survivors ([2]; Panc03 (SC), drug SC, QD3-9, 781 mg/kg total): 0/5
% T/C ([2]; Panc03 (SC), drug SC, QD3-9, at maximum tolerated total dose 781 mg/kg): 17%
antitumor activity (in words) ([2]; Pancreatic Ductal Adenocarcinoma 03): clearly active
Long Term Survivors ([3]; Colon 38 (SC), drug SC, QD3-9, 504 mg/kg total, footnote 4: Cure, no tumor evident, day 119): 1/5
% T/C ([3]; Colon 38 (SC), drug SC, QD3-9, at maximum tolerated total dose 504 mg/kg): 0%
antitumor activity (in words) ([3]; Colon Adenocarcinoma 38): Cure; no tumor evident; day 119; also recorded: clearly active; also recorded: highly active
MTD [4]: 504 mg/kg
Dose limiting toxicity ([5]; based on small spleen sizes in necropsy of mice dying at lethal dosage levels): leukopenia
host recovery (in words) ([5]; mouse, in vivo): rapid
host recovery: time to regain lost body weight post nadir ([5]; mouse, in vivo): two to five
tolerability ([5]; mouse, in vivo): well tolerated with no long delayed toxicity problems
% ILS (B16 melanoma; B16(IP), drug IP, QD1,5,9, 1500 mg/kg total): 66%
Long Term Survivors (B16 melanoma; B16(IP), drug IP, QD1,5,9, 1500 mg/kg total, footnote 5: Day 60, tumor evident): 1/6
antitumor activity (in words) (B16 melanoma; B16 melanoma IP): Day 60; tumor evident; also recorded: good activity
log10 tumor cell kill (B16 melanoma; B16 melanoma IP): 2.0 log10
MTD [6]: 1500 mg/kg
antineoplastic activity (in words) (several tumor systems): found to possess antineoplastic activity as evidenced by its activity in reducing the size of and curing tumors, and increasing the survival time of the mice

From patent US5308843A, “Method of inhibiting mammalian topoisomerase II and malignant cell growth in mammals, with substituted (S)-3-methyl-7-oxo-2,3-dihydro-7H-pyrido[1,2,3-de][1,4 ]-benzoxazine(and-benzothiazine)-6-carboxylic acids” (Sterling Drug Inc., priority 1990, dated 1994)
